Assay results reported in the supplement of paper PMC13386468.

Columns and labels:
Assay in all cases: IC50 for competition of protein binding to Kinobeads
Conditions in all cases: assay detail: Kinobeads competition in P. falciparum blood-stage lysate
[1] = biological target: UniProt Q8I5A9
[2] = biological target: UniProt Q8IJ37
[3] = biological target: UniProt O97266
[4] = biological target: UniProt Q8II36
[5] = biological target: UniProt Q8IDS6
[6] = biological target: UniProt Q8IDN6
[7] = biological target: UniProt O96221
[8] = biological target: UniProt Q8ILW8
[9] = biological target: UniProt Q8I2Z8
[10] = biological target: UniProt Q8IDN9
[11] = biological target: UniProt Q8I367
[12] = biological target: UniProt Q8IL48
[13] = biological target: UniProt Q8IIL5
[14] = biological target: UniProt Q8I4U5
[15] = biological target: UniProt Q7KQJ9
Sequence of UniProt Q7KQJ9 (Q7KQJ9 whole entry): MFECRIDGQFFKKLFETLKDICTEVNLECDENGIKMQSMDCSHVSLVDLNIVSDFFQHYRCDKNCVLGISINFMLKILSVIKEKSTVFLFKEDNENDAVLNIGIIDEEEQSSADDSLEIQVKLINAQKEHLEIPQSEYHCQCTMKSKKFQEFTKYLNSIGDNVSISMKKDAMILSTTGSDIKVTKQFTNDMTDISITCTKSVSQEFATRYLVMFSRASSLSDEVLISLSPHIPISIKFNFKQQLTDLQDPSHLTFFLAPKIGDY

[16] = biological target: UniProt Q8I5B3
[17] = biological target: UniProt Q8ILL2
[18] = biological target: UniProt Q8IKA6
[19] = biological target: UniProt Q8I488
[20] = biological target: UniProt Q8IBZ2
[21] = biological target: UniProt Q8IJE1
[22] = biological target: UniProt Q8I3N3
[23] = biological target: UniProt C0H4K6
[24] = biological target: UniProt Q8IDK7
[25] = biological target: UniProt Q8IBS3
[26] = biological target: UniProt C0H4P4
[27] = biological target: UniProt Q8IIC9
[28] = biological target: UniProt C0H4R8
[29] = biological target: UniProt Q8IJN3
[30] = biological target: UniProt Q8I2P2
[31] = biological target: UniProt Q8I1T8
Sequence of UniProt Q8I1T8 (Q8I1T8 whole entry): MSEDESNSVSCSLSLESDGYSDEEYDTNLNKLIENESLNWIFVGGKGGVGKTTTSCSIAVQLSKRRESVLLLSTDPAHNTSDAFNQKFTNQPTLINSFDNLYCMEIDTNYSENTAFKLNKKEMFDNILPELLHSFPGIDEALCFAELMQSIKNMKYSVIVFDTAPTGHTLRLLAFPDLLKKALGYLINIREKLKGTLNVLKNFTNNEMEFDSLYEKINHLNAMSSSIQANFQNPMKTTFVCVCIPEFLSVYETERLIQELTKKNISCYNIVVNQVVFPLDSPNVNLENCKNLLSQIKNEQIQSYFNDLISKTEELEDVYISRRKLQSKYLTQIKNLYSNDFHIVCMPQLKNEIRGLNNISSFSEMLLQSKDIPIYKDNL

[32] = biological target: UniProt Q8IE99
[33] = biological target: UniProt Q8IJA0
[34] = biological target: UniProt O15770
Sequence of UniProt O15770 (O15770 whole entry): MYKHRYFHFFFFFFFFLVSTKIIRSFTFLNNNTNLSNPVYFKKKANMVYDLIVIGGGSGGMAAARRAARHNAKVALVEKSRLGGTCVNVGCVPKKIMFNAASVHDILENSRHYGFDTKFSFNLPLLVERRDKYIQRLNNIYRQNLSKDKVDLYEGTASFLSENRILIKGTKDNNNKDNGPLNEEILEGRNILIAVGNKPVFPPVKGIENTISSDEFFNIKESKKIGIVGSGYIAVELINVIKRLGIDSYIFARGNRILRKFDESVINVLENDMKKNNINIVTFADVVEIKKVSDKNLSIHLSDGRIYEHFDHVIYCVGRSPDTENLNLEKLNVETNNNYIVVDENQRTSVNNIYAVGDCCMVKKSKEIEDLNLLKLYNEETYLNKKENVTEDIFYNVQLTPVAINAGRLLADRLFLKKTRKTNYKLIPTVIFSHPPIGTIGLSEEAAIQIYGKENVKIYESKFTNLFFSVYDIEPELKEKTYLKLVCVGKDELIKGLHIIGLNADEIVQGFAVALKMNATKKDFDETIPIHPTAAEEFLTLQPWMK

[35] = biological target: UniProt Q8I5F4
[36] = biological target: UniProt Q8IDT0
[37] = biological target: UniProt Q8IEM3
[38] = biological target: UniProt Q8I2V4
[39] = biological target: UniProt Q8I3R0
[40] = biological target: UniProt Q8I5C4
[41] = biological target: UniProt C0H5J5
[42] = biological target: UniProt Q8IHU0
[43] = biological target: UniProt Q8IIG6
[44] = biological target: UniProt Q8IDF6
Sequence of UniProt Q8IDF6 (Q8IDF6 whole entry): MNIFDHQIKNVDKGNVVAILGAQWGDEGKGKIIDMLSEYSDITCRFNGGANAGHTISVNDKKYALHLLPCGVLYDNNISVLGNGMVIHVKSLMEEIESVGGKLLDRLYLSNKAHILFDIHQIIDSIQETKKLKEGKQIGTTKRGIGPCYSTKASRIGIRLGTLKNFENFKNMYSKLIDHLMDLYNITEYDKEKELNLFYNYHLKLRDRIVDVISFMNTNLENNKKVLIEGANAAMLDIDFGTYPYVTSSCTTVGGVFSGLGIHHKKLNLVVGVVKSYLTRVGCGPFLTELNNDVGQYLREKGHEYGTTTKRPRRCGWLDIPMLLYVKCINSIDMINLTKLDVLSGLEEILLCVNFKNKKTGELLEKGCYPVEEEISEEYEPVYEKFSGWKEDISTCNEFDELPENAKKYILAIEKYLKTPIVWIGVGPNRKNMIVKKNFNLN

[45] = biological target: UniProt Q8IBJ1
[46] = biological target: Q8IEK1 (UniProt O96935)
Sequence of Q8IEK1 (O96935 whole entry, one chain of several): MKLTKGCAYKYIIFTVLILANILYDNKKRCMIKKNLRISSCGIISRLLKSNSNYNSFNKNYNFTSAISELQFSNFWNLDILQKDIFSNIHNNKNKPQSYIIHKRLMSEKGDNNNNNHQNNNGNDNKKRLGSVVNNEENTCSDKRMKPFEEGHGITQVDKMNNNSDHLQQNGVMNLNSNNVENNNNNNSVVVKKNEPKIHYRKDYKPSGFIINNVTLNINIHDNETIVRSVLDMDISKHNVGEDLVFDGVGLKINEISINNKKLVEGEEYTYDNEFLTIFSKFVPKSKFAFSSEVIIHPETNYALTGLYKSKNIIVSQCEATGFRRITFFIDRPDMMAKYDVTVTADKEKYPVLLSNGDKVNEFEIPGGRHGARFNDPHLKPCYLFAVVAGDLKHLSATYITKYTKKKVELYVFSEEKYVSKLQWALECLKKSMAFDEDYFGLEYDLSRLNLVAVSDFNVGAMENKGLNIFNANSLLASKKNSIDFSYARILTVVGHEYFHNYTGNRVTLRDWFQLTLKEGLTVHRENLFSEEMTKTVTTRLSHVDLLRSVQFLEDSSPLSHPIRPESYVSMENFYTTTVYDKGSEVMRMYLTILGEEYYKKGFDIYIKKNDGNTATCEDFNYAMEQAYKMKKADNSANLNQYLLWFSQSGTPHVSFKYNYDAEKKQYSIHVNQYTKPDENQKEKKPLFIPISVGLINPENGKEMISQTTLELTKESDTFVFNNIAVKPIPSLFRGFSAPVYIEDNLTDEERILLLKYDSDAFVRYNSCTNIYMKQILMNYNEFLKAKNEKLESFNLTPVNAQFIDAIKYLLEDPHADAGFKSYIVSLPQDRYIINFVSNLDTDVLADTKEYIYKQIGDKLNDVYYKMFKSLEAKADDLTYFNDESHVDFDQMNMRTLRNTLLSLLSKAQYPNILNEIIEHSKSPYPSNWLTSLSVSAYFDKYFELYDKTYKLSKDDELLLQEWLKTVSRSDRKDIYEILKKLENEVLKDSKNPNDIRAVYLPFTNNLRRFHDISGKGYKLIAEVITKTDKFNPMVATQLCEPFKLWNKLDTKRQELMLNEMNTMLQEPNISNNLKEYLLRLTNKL

[47] = biological target: UniProt O97248
[48] = biological target: UniProt Q8I2W4
[49] = biological target: UniProt Q8IDV0
[50] = biological target: UniProt Q8IJV7
[51] = biological target: UniProt Q8IJD4
Sequence of UniProt Q8IJD4 (Q8IJD4 whole entry): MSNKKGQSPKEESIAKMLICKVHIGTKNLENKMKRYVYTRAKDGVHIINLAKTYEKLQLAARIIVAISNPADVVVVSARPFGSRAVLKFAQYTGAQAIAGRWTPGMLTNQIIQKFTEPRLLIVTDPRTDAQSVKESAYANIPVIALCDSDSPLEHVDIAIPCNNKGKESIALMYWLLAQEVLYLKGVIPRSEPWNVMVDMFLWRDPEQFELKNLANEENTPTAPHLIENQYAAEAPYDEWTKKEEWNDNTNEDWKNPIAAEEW
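Note: native unpurified kinases from lysate captured on beads bearing immobilized kinase inhibitors, with bead-bound kinases quantified by mass spectrometry across compound doses.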

Sequence of UniProt Q8II36 (Q8II36 whole entry): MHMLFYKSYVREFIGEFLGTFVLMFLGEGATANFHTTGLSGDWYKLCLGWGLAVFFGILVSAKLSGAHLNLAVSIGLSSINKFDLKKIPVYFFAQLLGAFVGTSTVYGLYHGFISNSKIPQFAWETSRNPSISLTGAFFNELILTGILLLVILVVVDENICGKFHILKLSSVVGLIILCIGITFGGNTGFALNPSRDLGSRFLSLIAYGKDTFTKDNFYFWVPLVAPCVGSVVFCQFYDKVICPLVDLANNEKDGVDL

Which IC50 [1] does the source give for O=c1[nH]c2ccc(Cl)cc2c(NC2CN3CCC2CC3)c1-c1nc2ccccc2[nH]1 (stereo unspecified) [CHIR-124] here?
Its IC50 is greater than 20 µM.

And the IC50 [2]?
The IC50 was greater than 20 µM.

And the IC50 [3]?
Its IC50 is greater than 20 µM.

What about the IC50 [4] of the same compound?
Its IC50 is greater than 20 µM.

And the IC50 [5]?
Its IC50 is greater than 20 µM.

What about the IC50 [6] of the same compound?
The IC50 was greater than 20 µM.

What about the IC50 [7] of the same compound?
Its IC50 is greater than 20 µM.

And the IC50 [8]?
The IC50 was greater than 20 µM.

And the IC50 [9]?
The IC50 was greater than 20 µM.

What about the IC50 [10] of the same compound?
The IC50 was greater than 20 µM.

What about the IC50 [11] of the same compound?
The IC50 was greater than 20 µM.

What about the IC50 [12] of the same compound?
The IC50 was greater than 20 µM.

And the IC50 [13]?
The IC50 was greater than 20 µM.

And the IC50 [14]?
Its IC50 is greater than 20 µM.

What about the IC50 [15] of the same compound?
Its IC50 is greater than 20 µM.

What about the IC50 [16] of the same compound?
Its IC50 is greater than 20 µM.

And the IC50 [17]?
The IC50 was greater than 20 µM.

What about the IC50 [18] of the same compound?
Its IC50 is greater than 20 µM.

What about the IC50 [19] of the same compound?
Its IC50 is greater than 20 µM.

What about the IC50 [20] of the same compound?
The IC50 was greater than 20 µM.

And the IC50 [21]?
The IC50 was greater than 20 µM.

And the IC50 [22]?
Its IC50 is greater than 20 µM.

And the IC50 [23]?
Its IC50 is greater than 20 µM.

What about the IC50 [24] of the same compound?
Its IC50 is greater than 20 µM.

And the IC50 [25]?
The IC50 was greater than 20 µM.

What about the IC50 [26] of the same compound?
Its IC50 is greater than 20 µM.

What about the IC50 [27] of the same compound?
The IC50 was greater than 20 µM.

And the IC50 [28]?
The IC50 was 5.36 µM.

What about the IC50 [29] of the same compound?
Its IC50 is greater than 20 µM.

What about the IC50 [30] of the same compound?
Its IC50 is greater than 20 µM.

What about the IC50 [31] of the same compound?
The IC50 was greater than 20 µM.

What about the IC50 [32] of the same compound?
The IC50 was greater than 20 µM.

What about the IC50 [33] of the same compound?
The IC50 was greater than 20 µM.

What about the IC50 [34] of the same compound?
Its IC50 is greater than 20 µM.

What about the IC50 [35] of the same compound?
The IC50 was greater than 20 µM.

What about the IC50 [36] of the same compound?
The IC50 was greater than 20 µM.

What about the IC50 [37] of the same compound?
The IC50 was greater than 20 µM.

And the IC50 [38]?
The IC50 was greater than 20 µM.

What about the IC50 [39] of the same compound?
Its IC50 is greater than 20 µM.

And the IC50 [40]?
Its IC50 is greater than 20 µM.

And the IC50 [41]?
Its IC50 is greater than 20 µM.

And the IC50 [42]?
The IC50 was greater than 20 µM.

What about the IC50 [43] of the same compound?
The IC50 was greater than 20 µM.

And the IC50 [44]?
The IC50 was greater than 20 µM.

And the IC50 [45]?
Its IC50 is greater than 20 µM.

What about the IC50 [46] of the same compound?
The IC50 was greater than 20 µM.

What about the IC50 [47] of the same compound?
Its IC50 is greater than 20 µM.

And the IC50 [48]?
The IC50 was greater than 20 µM.

What about the IC50 [49] of the same compound?
Its IC50 is greater than 20 µM.

And the IC50 [50]?
Its IC50 is greater than 20 µM.

What about the IC50 [51] of the same compound?
Its IC50 is greater than 20 µM.
